Data: ChEMBL document CHEMBL1201862, “PubChem BioAssay data set” (2004)
The source made the active and inactive calls. Rule as the data show it, for most assays here: actives have a measured EC50 and inactives only a lower limit.

Legend:
[1] = target: T1, Heat shock factor protein 1 (Mus musculus, UniProt P38532); test: HSF1 potentiators in luciferase reporter cells, confirmation, cell-based, NIH3T3, luminescence, dose retest (AID 435004); assay type: functional;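 also: stress induced by proteasome inhibitor MG132 added 30 min after compound; luciferase reporter driven by HSF1 response element in NIH3T3 cells; actives raise luminescence as potentiators of the MG132 stress response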
T1 sequence (P38532 whole entry): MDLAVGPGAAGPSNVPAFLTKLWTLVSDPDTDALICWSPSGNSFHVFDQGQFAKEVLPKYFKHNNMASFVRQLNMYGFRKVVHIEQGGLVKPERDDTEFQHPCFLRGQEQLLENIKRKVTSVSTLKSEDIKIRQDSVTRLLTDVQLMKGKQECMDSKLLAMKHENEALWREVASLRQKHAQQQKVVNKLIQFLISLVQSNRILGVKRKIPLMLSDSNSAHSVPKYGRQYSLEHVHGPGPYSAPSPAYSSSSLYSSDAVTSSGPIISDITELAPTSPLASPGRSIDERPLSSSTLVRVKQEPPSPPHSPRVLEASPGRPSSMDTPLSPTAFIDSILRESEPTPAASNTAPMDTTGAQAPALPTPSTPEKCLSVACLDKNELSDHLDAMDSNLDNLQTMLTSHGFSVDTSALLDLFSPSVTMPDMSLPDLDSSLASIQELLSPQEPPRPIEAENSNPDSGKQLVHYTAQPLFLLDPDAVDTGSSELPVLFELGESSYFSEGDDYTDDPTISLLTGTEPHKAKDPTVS

[2] = Luminescence Cell-Based Dose Retest to Confirm Inhibitors of Cancer Stem Cells. [Related pubchem assays (depositor defined):AID2717, AID2721]; assay type: functional; conditions: Homo sapiens
[3] = HEp-2 cell cytotoxicity, dose response, cytotoxicity control for RSV inhibitor project, HTS (AID 2410); assay type: functional; conditions: human respiratory syncytial virus
[4] = cytotoxicity toward NIH3T3 fibroblasts, dose response, counter-screen, cell-based, ATP luminescence, mouse fibroblasts (AID 2010); assay type: functional;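 also: cells exposed to compound for about 90 hours before reading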
[5] = inhibitors of intracellular T. cruzi replication, confirmation, NIH3T3 host cells, beta-gal luminescence (AID 2044); assay type: functional, cell-based;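 also: intracellular parasites grown in NIH/3T3 mouse fibroblasts as host cells; luminescent beta-galactosidase reporter signal from transgenic T. cruzi replicating inside host cells; inhibitors lower the luminescence signal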
Cytochrome P450 1A2 = target: T2, Cytochrome P450 1A2 (Homo sapiens, UniProt P05177);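 also: PubChem cytochrome P450 panel assay, CYP1A2 panel member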
T2 sequence (P05177 whole entry): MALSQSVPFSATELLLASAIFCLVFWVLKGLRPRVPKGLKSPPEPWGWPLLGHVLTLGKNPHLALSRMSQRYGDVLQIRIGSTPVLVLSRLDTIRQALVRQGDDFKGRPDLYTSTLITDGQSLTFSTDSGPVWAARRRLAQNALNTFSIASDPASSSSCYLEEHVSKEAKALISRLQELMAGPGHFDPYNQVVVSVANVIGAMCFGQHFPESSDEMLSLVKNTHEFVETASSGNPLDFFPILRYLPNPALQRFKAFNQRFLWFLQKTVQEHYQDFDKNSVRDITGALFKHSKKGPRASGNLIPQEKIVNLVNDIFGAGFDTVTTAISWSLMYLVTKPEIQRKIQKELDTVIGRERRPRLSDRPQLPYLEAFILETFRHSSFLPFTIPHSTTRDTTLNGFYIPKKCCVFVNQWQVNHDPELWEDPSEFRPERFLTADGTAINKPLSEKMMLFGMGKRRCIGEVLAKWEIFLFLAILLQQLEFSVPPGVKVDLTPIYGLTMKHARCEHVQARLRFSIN

Cytochrome P450 3A4 = Cytochrome P450 3A4 (Homo sapiens, UniProt P08684);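 also: CYP3A4 tested as one member of a cytochrome P450 panel screen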
[6] = Luminescence Cell-Based Dose Confirmation HTS to Identify Activators of 5'UTR Stem-Loop Driven Alpha-Synuclein mRNA Translation in H4 Neuroglioblastoma Cells. [Related pubchem assays: 1829 (Project Summary), 1814 (Primary HTS)]; assay type: functional
H4 = test: Luminescence Cell-Based Dose Response HTS to Identify Activators of 5'UTR Stem-Loop Driven Prion Protein mRNA Translation in H4 Neuroglioblastoma Cells. [Related pubchem assays: 1829 (Project Summary), 1814 (Primary HTS)]; assay type: functional; conditions: Homo sapiens
[7] = Luminescence Cell-Based Dose Response HTS to Identify Activators of Luciferase Translation or Activity in H4 […] Cells. [Related pubchem assays: 1829 (Project Summary), 1814 (Primary HTS)]; assay type: functional
Protein RecA = target: T3, Protein RecA (Mycobacterium tuberculosis, UniProt P9WHJ3); test: Fluorescence Cell-Free Homogeneous Dose Retest to Identify Inhibitors of RecA-Intein Splicing Activity. [Related pubchem assays (depositor defined):AID2097, AID2223, AID489010, AID492950]; assay type: functional
T3 sequence (P9WHJ3 whole entry): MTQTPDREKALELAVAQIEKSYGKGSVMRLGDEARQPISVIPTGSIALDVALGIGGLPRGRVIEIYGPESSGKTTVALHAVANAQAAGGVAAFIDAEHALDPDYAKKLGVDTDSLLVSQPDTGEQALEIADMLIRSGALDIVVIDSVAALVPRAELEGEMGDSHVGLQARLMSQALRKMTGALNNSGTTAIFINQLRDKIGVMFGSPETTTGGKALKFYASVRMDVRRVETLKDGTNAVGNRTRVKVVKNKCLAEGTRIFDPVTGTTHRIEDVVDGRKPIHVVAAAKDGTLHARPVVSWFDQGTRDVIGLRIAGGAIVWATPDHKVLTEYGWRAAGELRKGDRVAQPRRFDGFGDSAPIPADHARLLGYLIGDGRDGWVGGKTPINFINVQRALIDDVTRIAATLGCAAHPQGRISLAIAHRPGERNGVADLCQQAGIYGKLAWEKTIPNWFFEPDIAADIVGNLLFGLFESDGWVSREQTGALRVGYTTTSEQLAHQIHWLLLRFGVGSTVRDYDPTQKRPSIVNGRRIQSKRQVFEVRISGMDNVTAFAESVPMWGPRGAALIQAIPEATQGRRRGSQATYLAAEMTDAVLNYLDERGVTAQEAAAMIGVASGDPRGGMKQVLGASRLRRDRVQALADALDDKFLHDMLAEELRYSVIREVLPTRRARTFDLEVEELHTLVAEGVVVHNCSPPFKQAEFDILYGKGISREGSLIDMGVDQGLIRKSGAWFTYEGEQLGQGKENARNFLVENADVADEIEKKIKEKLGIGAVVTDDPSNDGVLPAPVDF

[8] = target: T4, Replicative DNA helicase DnaB (Mycobacterium tuberculosis, UniProt P9WMR3); test: DnaB intein splicing inhibitors, dose response, biochemical, cell-free fluorescence (AID 449749); assay type: functional
T4 sequence (P9WMR3 whole entry): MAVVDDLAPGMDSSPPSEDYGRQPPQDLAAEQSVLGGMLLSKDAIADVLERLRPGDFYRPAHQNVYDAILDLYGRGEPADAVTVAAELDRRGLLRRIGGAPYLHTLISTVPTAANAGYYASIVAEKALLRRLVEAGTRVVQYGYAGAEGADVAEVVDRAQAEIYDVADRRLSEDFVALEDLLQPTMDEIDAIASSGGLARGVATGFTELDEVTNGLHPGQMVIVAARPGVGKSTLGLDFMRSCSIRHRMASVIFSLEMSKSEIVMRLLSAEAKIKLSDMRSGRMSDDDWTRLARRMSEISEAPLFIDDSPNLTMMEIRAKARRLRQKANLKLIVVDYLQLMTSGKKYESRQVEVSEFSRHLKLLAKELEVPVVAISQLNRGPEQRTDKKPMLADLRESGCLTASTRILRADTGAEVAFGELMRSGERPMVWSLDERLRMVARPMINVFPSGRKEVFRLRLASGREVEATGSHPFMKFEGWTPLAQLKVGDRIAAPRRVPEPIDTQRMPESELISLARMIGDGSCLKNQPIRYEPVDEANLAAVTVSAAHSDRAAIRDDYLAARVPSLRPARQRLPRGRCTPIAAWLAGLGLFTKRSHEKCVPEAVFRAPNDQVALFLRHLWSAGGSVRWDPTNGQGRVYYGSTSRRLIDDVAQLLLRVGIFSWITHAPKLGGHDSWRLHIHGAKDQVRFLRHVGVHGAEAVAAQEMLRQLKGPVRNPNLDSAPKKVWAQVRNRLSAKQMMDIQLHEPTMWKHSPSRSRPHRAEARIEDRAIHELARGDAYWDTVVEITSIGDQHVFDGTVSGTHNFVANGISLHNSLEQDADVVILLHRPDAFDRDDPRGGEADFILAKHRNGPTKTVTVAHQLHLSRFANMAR

Chain of Cytochrome P450 3A4 (P08684 whole entry): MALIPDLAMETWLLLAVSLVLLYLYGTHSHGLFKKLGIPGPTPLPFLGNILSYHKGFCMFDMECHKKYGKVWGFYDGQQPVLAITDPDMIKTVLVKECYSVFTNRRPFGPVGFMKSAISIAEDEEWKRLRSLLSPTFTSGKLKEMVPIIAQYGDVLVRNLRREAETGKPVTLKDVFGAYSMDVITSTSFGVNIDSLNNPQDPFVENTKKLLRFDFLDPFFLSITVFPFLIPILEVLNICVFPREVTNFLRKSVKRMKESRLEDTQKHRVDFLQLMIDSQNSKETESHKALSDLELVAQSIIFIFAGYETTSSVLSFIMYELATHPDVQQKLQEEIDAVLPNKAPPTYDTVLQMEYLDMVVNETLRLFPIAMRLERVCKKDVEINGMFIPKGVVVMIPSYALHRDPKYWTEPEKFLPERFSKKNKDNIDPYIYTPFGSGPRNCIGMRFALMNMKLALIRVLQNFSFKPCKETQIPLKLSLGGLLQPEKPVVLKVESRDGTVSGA

## CCOc1ccc(OCCC(=O)OCC(=O)N2CCN(S(=O)(=O)c3ccc(Cl)cc3)CC2)cc1
[1]
  EC50: 18.5 µM (active)

## CC(=O)N1c2ccc(Cl)cc2C2C=CCC2C1c1cccc2ccccc12 (stereo not given)
[2]
  AC50: 2.27 µM (active)

## COc1ccc(S(=O)(=O)N2CCN(c3nc(-c4cccnc4)nc4ccccc34)CC2)cc1
[3]
  CC50: 30.4 µM (active)

## COc1ccc(N=Nc2ccc(CO)cc2)cc1
[1]
  EC50: > 260 µM (inactive)

## CCOc1ncccc1C(=O)N(C)CC1COc2ccccc2O1 (stereo not given)
[1]
  EC50: > 260 µM (inactive)

## O=[N+]([O-])c1ccc(C2CCCC/C2=N\OCc2cccc(F)c2)c([N+](=O)[O-])c1 (stereo not given)
[4]
  EC50: > 60 µM (not active)
[5]
  EC50: 0.518 µM (active)
Cytochrome P450 1A2
  AC50: 15.8 µM (inconclusive)

## CCOC(=O)c1c(C)n(C)c2ccc(OCC(O)Cn3c(C)nc4ccccc43)cc12 (stereo not given)
[3]
  CC50: 19.4 µM (active)

## Cc1ccc2sc(N(CCCN(C)C)C(=O)c3ccc(S(=O)(=O)N4CCCCCC4)cc3)nc2c1C
[4]
  EC50: 9.3 µM (active)
[2]
  AC50: 3.12 µM (active)
[5]
  EC50: 0.445 µM (active)

## O=C(O)CCc1ccc(-c2ccc(Br)cc2)n1Cc1ccco1
[1]
  EC50: > 260 µM (inactive)

## CC1CCc2[nH]c3ccc(C(=O)N(C)CC(=O)Nc4ccccc4Br)cc3c2C1 (stereo not given)
[3]
  CC50: 22 µM (active)

## CCOc1ccc(NC(=O)Nc2ccc(Cc3ccncc3)cc2)cc1
[2]
  AC50: 8.67 µM (active)

## O=C(NNc1c(F)c(F)cc(F)c1F)c1ccc(Cl)nc1
[1]
  EC50: > 260 µM (inactive)

## Cc1ccccc1C1c2[nH]c3ccccc3c2CCN1C(=O)c1ccc(=O)n(C)n1 (stereo not given)
[3]
  CC50: 20.4 µM (active)

## O=C(CCc1nnc2n(Cc3ccc(F)cc3)c(=O)c3ccccc3n12)N1CCN(c2ccccn2)CC1
[3]
  CC50: 37.4 µM (active)

## COc1ccc(NS(=O)(=O)c2cccc(C(=O)N/N=C(\C)c3ccc(-n4ccnc4)cc3)c2)cc1
[2]
  AC50: > 195 µM (inactive)

## O=C(NC(=S)Nc1ccccc1C(F)(F)F)c1ccccc1F
[1]
  EC50: 143 µM (active)

## Cc1ccc(F)cc1NC(=O)N1CCCN(c2ccc(C(F)(F)F)cn2)CC1
[1]
  EC50: > 260 µM (inactive)

## Cc1ccc2nc(N(CCCN(C)C)C(=O)c3cc(-c4cccs4)nc4ccccc34)sc2c1
[2]
  AC50: 4.45 µM (active)

## CSc1nc2n(n1)C(c1cc(Br)ccc1F)C(C(=O)N(C)C)=C(C)N2 (stereo not given)
Cytochrome P450 3A4
  AC50: 14.1 µM (inconclusive)
Cytochrome P450 1A2
  AC50: 25.1 µM (inconclusive)

## Nn1c(SCc2ccccc2F)nnc1-c1cccnc1
[6]
  EC50: 64.2 µM (active)
H4
  EC50: 33.4 µM (active)
[7]
  EC50: 36.8 µM (active)

## CCOC(=O)C(/C=N/c1ccc(C#N)cc1)=C(/O)OCC
[1]
  EC50: > 260 µM (inactive)

## CCN1CCN(Cc2ccc(OCc3ccccc3)cc2)CC1
[2]
  AC50: 1.89 µM (active)

## Cc1noc(C)c1COC(=O)c1cc2ccccc2cc1O
[3]
  CC50: 43.1 µM (active)

## COc1cc(C(=O)OC2CC3CCC2(C)C3(C)C)ccc1OC(C)=O (stereo not given)
[2]
  AC50: 3.75 µM (active)

## NC(=O)c1sc2nc(N3CCOCC3)c3c(c2c1N)CCCC3
[3]
  CC50: > 50 µM (active)

## COc1ccc(N2CCN(c3ncnc4c3cnn4-c3ccc(C)cc3C)CC2)cc1
[1]
  EC50: > 260 µM (inactive)

## CC(=O)Cn1ncc(N2CCCCC2)c(Cl)c1=O
[6]
  EC50: 24.6 µM (active)
H4
  EC50: 23.5 µM (active)
[7]
  EC50: 11.5 µM (active)

## COc1ccccc1-c1c[nH]nc1-c1ccc(OCc2ccccc2F)cc1O
[2]
  AC50: 4.88 µM (active)

## COc1ccc2c3c(ccc2c1)N[C@H](C(=O)O)CC3
Cytochrome P450 1A2
  AC50: 0.501 µM (inconclusive)

## O=C(CSc1ncnc2c1nnn2-c1ccc(F)cc1)NCC1CCCO1 (stereo not given)
Protein RecA
  EC50: 3.67 µM (active)
[1]
  EC50: 36.2 µM (active)
[8]
  AC50: 3.14 µM (active)

## Cc1cc(C(=O)CN2C(=O)NC3(CCCCC3)C2=O)c(C)n1Cc1ccco1
[1]
  EC50: 44 µM (active)

## Cc1ccc(/C=N/N2CCN(Cc3ccccc3)CC2)s1
[6]
  EC50: 21 µM (active)
H4
  EC50: > 120 µM (not active)
[7]
  EC50: 11.9 µM (active)

## CCN(CC)C(=O)CSc1ncnc2sc(C)c(C)c12
[1]
  EC50: > 260 µM (inactive)

## Cc1ccccc1C1=NC(c2ccc(F)cc2F)ON1 (stereo not given)
[6]
  EC50: 33.6 µM (active)
H4
  EC50: 33.8 µM (active)
[7]
  EC50: 8.1 µM (active)

## CC(C)C(=O)NCCc1nc2ccccc2n1CCCOc1ccc(Cl)cc1
Cytochrome P450 1A2
  AC50: 28.2 µM (inconclusive)
